What was measured:
Assay in all cases: KINOMEscan competition binding
Conditions in all cases: compound 10.0 µM
[1] = tested on: FLT3 (human), P36888 [D835H]
[2] = target: CDK16 (human) (UniProt Q00536)
[3] = target: RPS6KA6 KD1 (human) (UniProt Q9UK32)
[4] = target: ERBB2 (human) (UniProt P04626)
[5] = target: FRK (human) (UniProt P42685)
[6] = target: STK17B (human) (UniProt O94768)
[7] = target: PIM1 (human) (UniProt P11309)
[8] = target: DAPK3 (human) (UniProt O43293)
[9] = target: GSK3A (human) (UniProt P49840)
[10] = target: PHKG2 (human) (UniProt P15735)
[11] = target: ULK3 (human) (UniProt Q6PHR2)
[12] = target: FGR (human) (UniProt P09769)
[13] = target: LYN (human) (UniProt P07948)
[14] = target: MST4 (human) (UniProt Q9P289)
[15] = target: NEK6 (human) (UniProt Q9HC98)
[16] = target: MET (human) (UniProt P08581)
[17] = target: CSNK1G2 (human) (UniProt P78368)
[18] = target: MAP3K5 (human) (UniProt Q99683)
[19] = target: PRKG1 (human) (UniProt Q13976)
[20] = target: EPHB1 (human) (UniProt P54762)
[21] = target: FYN (human) (UniProt P06241)
[22] = target: MAPK3 (human) (UniProt P27361)
[23] = target: MAP4K1 (human) (UniProt Q92918)
[24] = target: CDK11B (human) (UniProt P21127)
[25] = target: STK38L (human) (UniProt Q9Y2H1)
[26] = target: MINK1 (human) (UniProt Q8N4C8)
[27] = target: AAK1 (human) (UniProt Q2M2I8)
[28] = target: FES (human) (UniProt P07332)
[29] = target: BRSK2 (human) (UniProt Q8IWQ3)
[30] = target: MAP3K4 (human) (UniProt Q9Y6R4)
[31] = target: STK32B (human) (UniProt Q9NY57)
[32] = target: NUAK1 (human) (UniProt O60285)
[33] = target: BLK (human) (UniProt P51451)
[34] = target: PTK2B (human) (UniProt Q14289)
Chain of PTK2B (human) (Q14289 whole entry, looked up): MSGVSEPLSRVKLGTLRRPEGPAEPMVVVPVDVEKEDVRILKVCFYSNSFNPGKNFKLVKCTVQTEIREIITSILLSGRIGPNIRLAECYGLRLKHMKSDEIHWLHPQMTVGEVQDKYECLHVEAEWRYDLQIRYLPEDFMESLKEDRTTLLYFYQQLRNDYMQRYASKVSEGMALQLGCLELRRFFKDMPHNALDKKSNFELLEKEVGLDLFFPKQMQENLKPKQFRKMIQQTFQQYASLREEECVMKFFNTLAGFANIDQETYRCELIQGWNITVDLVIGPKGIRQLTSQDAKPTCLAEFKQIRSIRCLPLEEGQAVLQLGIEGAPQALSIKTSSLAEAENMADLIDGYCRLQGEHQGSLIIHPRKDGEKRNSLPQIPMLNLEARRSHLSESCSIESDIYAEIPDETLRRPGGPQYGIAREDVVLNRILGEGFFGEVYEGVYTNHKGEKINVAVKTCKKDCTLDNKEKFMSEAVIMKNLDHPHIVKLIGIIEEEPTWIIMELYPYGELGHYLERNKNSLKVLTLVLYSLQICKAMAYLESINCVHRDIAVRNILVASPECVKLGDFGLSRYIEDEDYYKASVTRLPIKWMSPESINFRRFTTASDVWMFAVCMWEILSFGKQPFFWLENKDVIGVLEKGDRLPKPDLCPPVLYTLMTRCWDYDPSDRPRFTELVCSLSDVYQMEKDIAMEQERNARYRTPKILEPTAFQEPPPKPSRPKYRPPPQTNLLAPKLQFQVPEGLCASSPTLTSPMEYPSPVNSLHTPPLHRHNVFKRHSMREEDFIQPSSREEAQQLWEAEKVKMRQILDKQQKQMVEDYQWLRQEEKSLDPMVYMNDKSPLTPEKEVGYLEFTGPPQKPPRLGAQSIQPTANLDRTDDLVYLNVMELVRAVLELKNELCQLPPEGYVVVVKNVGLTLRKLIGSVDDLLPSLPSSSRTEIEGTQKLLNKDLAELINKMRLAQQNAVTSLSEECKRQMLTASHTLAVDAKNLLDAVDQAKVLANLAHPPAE

Chain of PRKG1 (human) (Q13976 whole entry, looked up): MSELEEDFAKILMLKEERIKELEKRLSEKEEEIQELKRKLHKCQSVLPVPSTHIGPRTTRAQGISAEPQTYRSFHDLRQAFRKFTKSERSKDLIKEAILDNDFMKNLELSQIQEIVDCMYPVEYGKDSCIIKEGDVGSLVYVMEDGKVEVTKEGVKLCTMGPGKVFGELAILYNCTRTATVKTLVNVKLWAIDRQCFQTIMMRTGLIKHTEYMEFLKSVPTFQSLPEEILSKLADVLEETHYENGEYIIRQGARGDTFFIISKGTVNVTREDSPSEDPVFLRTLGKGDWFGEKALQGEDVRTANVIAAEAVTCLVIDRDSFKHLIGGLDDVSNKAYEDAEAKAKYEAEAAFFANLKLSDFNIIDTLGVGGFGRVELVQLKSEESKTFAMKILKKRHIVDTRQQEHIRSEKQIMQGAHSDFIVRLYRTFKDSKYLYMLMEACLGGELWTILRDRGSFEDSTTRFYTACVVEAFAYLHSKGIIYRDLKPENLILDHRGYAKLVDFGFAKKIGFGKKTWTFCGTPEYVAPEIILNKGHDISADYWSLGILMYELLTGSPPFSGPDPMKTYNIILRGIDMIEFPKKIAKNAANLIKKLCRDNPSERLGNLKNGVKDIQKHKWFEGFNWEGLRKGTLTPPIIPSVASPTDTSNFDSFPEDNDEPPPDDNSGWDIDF
Chain of BLK (human) (P51451 whole entry, looked up): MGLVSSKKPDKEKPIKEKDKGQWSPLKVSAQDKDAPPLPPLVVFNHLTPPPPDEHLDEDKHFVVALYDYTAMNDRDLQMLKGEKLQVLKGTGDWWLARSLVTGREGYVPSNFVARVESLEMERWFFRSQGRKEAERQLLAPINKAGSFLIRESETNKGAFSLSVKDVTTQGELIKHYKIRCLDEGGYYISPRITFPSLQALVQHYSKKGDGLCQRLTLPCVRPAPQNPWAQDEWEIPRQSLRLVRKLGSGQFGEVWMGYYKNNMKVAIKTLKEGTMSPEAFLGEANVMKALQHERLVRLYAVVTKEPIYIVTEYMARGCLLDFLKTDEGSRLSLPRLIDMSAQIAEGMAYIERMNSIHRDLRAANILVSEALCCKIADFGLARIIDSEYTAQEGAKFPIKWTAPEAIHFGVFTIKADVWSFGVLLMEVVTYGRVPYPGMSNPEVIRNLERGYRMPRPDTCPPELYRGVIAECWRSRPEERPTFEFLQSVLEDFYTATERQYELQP
Chain of FES (human) (P07332 whole entry, looked up): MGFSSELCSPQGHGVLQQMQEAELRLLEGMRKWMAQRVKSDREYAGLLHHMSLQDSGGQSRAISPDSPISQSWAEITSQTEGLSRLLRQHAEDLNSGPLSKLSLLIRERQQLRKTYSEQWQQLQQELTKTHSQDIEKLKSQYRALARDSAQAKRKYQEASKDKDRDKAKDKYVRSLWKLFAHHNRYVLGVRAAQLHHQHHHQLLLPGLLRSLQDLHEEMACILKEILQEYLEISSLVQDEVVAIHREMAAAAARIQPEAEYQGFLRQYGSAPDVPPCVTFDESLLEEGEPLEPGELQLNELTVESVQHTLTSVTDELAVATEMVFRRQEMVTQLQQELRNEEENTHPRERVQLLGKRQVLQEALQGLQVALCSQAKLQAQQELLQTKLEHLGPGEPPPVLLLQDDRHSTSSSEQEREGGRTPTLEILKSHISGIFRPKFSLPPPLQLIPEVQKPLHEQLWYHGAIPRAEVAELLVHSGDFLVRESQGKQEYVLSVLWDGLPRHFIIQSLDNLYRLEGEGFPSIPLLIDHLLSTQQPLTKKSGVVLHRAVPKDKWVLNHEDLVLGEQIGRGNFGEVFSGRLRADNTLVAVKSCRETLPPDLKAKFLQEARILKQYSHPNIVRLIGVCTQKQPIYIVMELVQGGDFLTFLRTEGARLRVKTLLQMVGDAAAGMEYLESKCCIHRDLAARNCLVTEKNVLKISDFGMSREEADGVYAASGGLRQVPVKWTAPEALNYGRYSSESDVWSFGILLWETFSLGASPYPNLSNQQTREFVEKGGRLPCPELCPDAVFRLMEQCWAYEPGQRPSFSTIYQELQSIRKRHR
Chain of CDK11B (human) (P21127 whole entry, looked up): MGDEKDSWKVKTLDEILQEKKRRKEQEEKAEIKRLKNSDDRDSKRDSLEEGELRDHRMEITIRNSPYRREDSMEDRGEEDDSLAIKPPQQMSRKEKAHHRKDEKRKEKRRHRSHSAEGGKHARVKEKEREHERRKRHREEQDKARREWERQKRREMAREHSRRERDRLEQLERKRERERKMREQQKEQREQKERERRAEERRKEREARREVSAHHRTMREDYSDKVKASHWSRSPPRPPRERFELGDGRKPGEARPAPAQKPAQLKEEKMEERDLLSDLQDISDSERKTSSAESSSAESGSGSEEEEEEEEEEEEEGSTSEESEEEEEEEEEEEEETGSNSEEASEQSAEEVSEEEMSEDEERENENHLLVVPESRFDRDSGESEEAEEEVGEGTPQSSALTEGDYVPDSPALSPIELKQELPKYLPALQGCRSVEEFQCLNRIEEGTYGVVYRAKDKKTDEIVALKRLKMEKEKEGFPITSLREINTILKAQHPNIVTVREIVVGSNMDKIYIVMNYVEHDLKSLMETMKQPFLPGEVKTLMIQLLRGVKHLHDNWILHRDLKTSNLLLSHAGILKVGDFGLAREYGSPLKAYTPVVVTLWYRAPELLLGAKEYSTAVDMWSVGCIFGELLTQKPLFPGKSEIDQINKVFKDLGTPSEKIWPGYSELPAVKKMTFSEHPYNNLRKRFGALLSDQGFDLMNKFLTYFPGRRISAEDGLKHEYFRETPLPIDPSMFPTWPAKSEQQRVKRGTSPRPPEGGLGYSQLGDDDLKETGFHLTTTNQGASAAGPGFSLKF
Chain of LYN (human) (P07948 whole entry, looked up): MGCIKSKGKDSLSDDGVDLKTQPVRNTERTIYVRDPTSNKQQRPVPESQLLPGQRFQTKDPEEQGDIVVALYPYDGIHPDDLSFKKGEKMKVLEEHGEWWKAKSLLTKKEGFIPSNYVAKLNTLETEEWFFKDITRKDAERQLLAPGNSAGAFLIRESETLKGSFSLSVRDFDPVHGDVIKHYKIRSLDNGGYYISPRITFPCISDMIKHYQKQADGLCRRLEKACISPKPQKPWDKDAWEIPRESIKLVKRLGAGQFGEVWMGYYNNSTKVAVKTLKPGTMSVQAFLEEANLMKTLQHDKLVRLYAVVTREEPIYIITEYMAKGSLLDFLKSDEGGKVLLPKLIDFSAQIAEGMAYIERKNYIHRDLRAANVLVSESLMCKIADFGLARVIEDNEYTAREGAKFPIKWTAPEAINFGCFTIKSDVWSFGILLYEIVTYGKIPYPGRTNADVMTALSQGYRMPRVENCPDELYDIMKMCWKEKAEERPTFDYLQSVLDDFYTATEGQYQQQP
Chain of PIM1 (human) (P11309 whole entry, looked up): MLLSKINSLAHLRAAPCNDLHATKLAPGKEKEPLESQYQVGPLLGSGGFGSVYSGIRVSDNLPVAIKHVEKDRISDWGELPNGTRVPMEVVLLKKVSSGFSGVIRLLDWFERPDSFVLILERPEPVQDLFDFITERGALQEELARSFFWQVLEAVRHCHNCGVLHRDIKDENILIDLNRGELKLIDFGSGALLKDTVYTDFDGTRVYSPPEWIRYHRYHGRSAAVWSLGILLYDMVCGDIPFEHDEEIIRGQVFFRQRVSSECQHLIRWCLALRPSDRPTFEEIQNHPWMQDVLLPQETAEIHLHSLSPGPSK
Chain of NEK6 (human) (Q9HC98 whole entry, looked up): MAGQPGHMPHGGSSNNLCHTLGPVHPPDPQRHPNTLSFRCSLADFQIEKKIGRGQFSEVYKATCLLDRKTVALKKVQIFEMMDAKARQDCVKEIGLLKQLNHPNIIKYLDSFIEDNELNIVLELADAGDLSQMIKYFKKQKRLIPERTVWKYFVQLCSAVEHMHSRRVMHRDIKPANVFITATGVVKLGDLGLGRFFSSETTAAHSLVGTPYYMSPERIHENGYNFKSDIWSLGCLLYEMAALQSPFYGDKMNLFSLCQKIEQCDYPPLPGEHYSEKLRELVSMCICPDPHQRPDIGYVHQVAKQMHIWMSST

SMILES	kinase still bound, per cent of control [1]	kinase still bound, per cent of control [2]	kinase still bound, per cent of control [3]	kinase still bound, per cent of control [4]	kinase still bound, per cent of control [5]	kinase still bound, per cent of control [6]	kinase still bound, per cent of control [7]	kinase still bound, per cent of control [8]	kinase still bound, per cent of control [9]	kinase still bound, per cent of control [10]	kinase still bound, per cent of control [12]	kinase still bound, per cent of control [13]	kinase still bound, per cent of control [14]	kinase still bound, per cent of control [15]	kinase still bound, per cent of control [16]	kinase still bound, per cent of control [17]	kinase still bound, per cent of control [18]	kinase still bound, per cent of control [19]	kinase still bound, per cent of control [20]	kinase still bound, per cent of control [21]	other results
Cc1n[nH]c2ccc(-c3cncc(OC[C@@H](N)Cc4c[nH]c5ccccc45)c3)cc12	5%	16%	100%	100%	100%	20%	0.4%	2.3%	1%	23%	100%	100%	30%	100%	100%	0.65%	100%	0.65%	100%	100%	kinase still bound, per cent of control [11]: 100%; kinase still bound, per cent of control [22]: 100%; kinase still bound, per cent of control [23]: 23%; kinase still bound, per cent of control [24]: 100%; kinase still bound, per cent of control [25]: 100%; kinase still bound, per cent of control [26]: 6.2%; kinase still bound, per cent of control [27]: 1.8%; kinase still bound, per cent of control [28]: 100%; kinase still bound, per cent of control [29]: 100%; kinase still bound, per cent of control [30]: 100%; kinase still bound, per cent of control [31]: 100%; kinase still bound, per cent of control [32]: 100%
CNC(=O)c1ccc(Nc2cc(Nc3ccccc3S(=O)(=O)C(C)C)c3cc[nH]c3n2)nc1	0.65%	22%	29%	100%	33%	33%	100%	100%	18%	100%	5%	22%	19%	100%	1%	3.1%	100%	100%	100%	8.1%	kinase still bound, per cent of control [33]: 0.55%; kinase still bound, per cent of control [11]: 3.7%; kinase still bound, per cent of control [22]: 100%; kinase still bound, per cent of control [34]: 0.1%; kinase still bound, per cent of control [23]: 7.9%; kinase still bound, per cent of control [24]: 100%; kinase still bound, per cent of control [25]: 15%; kinase still bound, per cent of control [26]: 100%; kinase still bound, per cent of control [27]: 11%; kinase still bound, per cent of control [28]: 12%; kinase still bound, per cent of control [29]: 100%; kinase still bound, per cent of control [30]: 100%; kinase still bound, per cent of control [31]: 100%; kinase still bound, per cent of control [32]: 0.95%
C=CC(=O)Nc1ccc(CN(C(=O)Nc2c(Cl)c(OC)cc(OC)c2Cl)c2cc(Nc3ccc(N4CCN(C)CC4)cc3)ncn2)cc1	16%	100%	100%	16%	0.65%	100%	100%	100%	100%	100%	7%	5%	100%	100%	100%	100%	100%	100%	100%	5.6%	kinase still bound, per cent of control [33]: 0.1%; kinase still bound, per cent of control [11]: 100%; kinase still bound, per cent of control [22]: 100%; kinase still bound, per cent of control [34]: 100%; kinase still bound, per cent of control [23]: 16%; kinase still bound, per cent of control [24]: 100%; kinase still bound, per cent of control [25]: 100%; kinase still bound, per cent of control [26]: 100%; kinase still bound, per cent of control [27]: 100%; kinase still bound, per cent of control [28]: 4%; kinase still bound, per cent of control [29]: 100%; kinase still bound, per cent of control [30]: 10%; kinase still bound, per cent of control [31]: 100%; kinase still bound, per cent of control [32]: 100%
CCN(CC)CCCCNc1ncc2cc(-c3cc(OC)cc(OC)c3)c(NC(=O)NC(C)(C)C)nc2n1	100%	100%	100%	100%	100%	100%	100%	100%	100%	100%	100%	100%	100%	100%	100%	100%	100%	100%	100%	100%	kinase still bound, per cent of control [33]: 100%; kinase still bound, per cent of control [22]: 100%; kinase still bound, per cent of control [34]: 100%; kinase still bound, per cent of control [23]: 100%; kinase still bound, per cent of control [24]: 100%; kinase still bound, per cent of control [25]: 100%; kinase still bound, per cent of control [27]: 100%; kinase still bound, per cent of control [28]: 100%; kinase still bound, per cent of control [29]: 100%; kinase still bound, per cent of control [30]: 100%; kinase still bound, per cent of control [31]: 100%; kinase still bound, per cent of control [32]: 100%
